Patent US20240043473A1, “NOOTROPIC PEPTIDES FOR TREATING LYSOSOMAL STORAGE DISEASES” (Phoenix Nest Inc., priority 2021, published 2024)
“Also recorded” adds a separate entry of the source. No end group written: not given here.

Assays:
[1] = system: CA1 pyramidal neurons in acute hippocampal slices from Hgsnat-Geo and Hgsnat^P304L mice; assay: Miniature excitatory postsynaptic currents (mEPSC), whole cell voltage clamp in acute hippocampal slices; type: cell-based, mouse; details: for mEPSC amplitude and frequency deficits: Hgsnat-Geo and Hgsnat^P311L (P304L) slices
Experimental: Models and developmental time points: Hippocampal slices from Hgsnat-Geo and Hgsnat^P304L mice; P14-20 and P45-60.
Method: Whole cell voltage clamp electrophysiology recordings (miniature synaptic currents) were conducted on CA1 pyramidal neurons in acute hippocampal slices.
(§1) Acute hippocampal slices were prepared as follows. Briefly, animals were anaesthetized deeply with isoflurane and decapitated. The brain was dissected carefully and transferred rapidly into an ice-cold (0-4° C.) solution containing the following (in mM): 250 sucrose, 2 KCl, 1.25 NaH2PO4, 26 NaHCO3, 7 MgSO4, 0.5 CaCl2 and 10 glucose, pH 7.4. The solution was oxygenated continuously with 95% O2 and 5% CO2, 330-340 mOsm/L. Transverse hippocampal slices (thickness, 300 μm) were cut using a vibratome (VT1000S; Leica Microsystems), transferred to a bath at room temperature (23° C.) with standard ACSF at pH 7.4 containing the following (in mM): 126 NaCl, 3 KCl, 1 NaH2PO^4, 25 NaHCO3, 2 MgSO4, 2 CaCl2), 10 glucose, continuously saturated with 95% 02 and 5% CO2 and allowed to recover for 1 h. During the experiments, slices were transferred to the recording chamber at physiological temperature (30-33° C.) continuously perfused with standard ACSF, as described above, at 2 ml/min. Pyramidal CA1 neurons from the hippocampus were identified visually using a 40× water immersion objective. Whole-cell patch-clamp recordings were obtained from single cells in voltage- or current-clamp mode and only 1 cell per slice was recorded to enable post-hoc identification and immunohistochemical processing. Recording pipettes (4-6 MΩ) were filled with a K-gluconate based solution for voltage-clamp recordings (in mM): 130 K-gluconate, 10 KCl, 5 diNa-phosphocreatine. 10 HEPES, 2.5 MgCl2, 0.5CaCl2,1 EGTA, 3 ATP-Tris, 0.4 GTP-Li, 0.3% biocytin, pH 7.2-7.4, 280-290 mOsm/L.
After obtaining whole cell configuration, passive membrane properties were monitored for 5 min and current clamp recordings were done to measure action potential characteristics. […]. Cells were voltage clamped at −70 mV for mEPSCs recording and then held at 0 mV (calculated from the reversal potential of Cl) for mIPSCs recording. Data acquisition (filtered at 2-3 kHz and digitized at 15 kHz; Digidata 1440A, Molecular Devices, CA, USA) was performed using the Axopatch 200B amplifier and the Clampex 10.6 software (Molecular Devices). Both mEPSCs and mIPSCs were recorded for 7 min and a running template on a stable baseline (minimum of 30 events) was used for the analysis of miniature events on MiniAnalysis. Clampfit 10.2 software was used for analysis of action potential characteristics and other passive membrane properties.
This example tested AVP6's effect on synaptic signaling in acute hippocampal slices of MPS IIIC (both Hgsnat^Geo and Hgsnat^P304L) mice. […]

[2] = Preliminary studies of activity and stability of the acetylated peptide
[3] = system: hippocampus CA1 pyramidal cells in hippocampal slices from Hgsnat^Geo and Hgsnat^P311L mice; assay: Evoked synaptic currents (AMPA EPSCs, NMDA EPSCs, paired pulse) by stimulating Schaffer collaterals in hippocampal slices; type: cell-based, mouse
Experimental: Model and Developmental time points: Hippocampal slices from Hgsnat^Geo and Hgsnat^P311L mice; P14-20.
Method: Synaptic currents (composite glutamatergic EPSCs, AMPA EPSCs and NMDA EPSCs) were evoked by stimulating Schaffer collaterals and recordings were conducted from the hippocampus CA1 pyramidal cells in hippocampal slices from Hgsnat^Geo and Hgsnat^P311L mice. Paired pulse stimulation protocol with increasing stimulus intervals was used to identify the locus of deficit.
as §1
We further studied evoked glutamatergic EPSCs in CA1 pyramidal neurons at P14-20 by stimulating Schaffer Collateral afferents. […] The effect is aggravated at higher IPI, as both the readily releasable and reserve pools of synaptic vesicles get progressively emptied.

[4] = system: Hgsnat^P304L mice; assay: Wet spleen weight at sacrifice (splenomegaly); type: in vivo, mouse; details: chronic daily 50 μg/kg BW; Hgsnat^P304L mice at sacrifice (9.5-11 months); vs saline
[5] = 10 μM bath application, P14-20, Hgsnat^P311L (P304L) slices

Question: With “AVP6: N-terminally acetylated Semax, a nootropic peptide having the amino acid sequence of MEHFPGP (SEQ ID NO:1) (Ac-MEHFPGP)” as the substance, how does the “mEPSC amplitude and frequency deficits” value ([1]; 10 μM bath application, P14-20) read?
Answer: recovered deficits in mEPSC amplitude and frequency; also recorded: deficit is rescued

Question: What about the “mEPSC amplitude and frequency deficits” value ([1]; 10 μM bath application, P45-60) of the same substance?
Answer: recovered deficits in mEPSC amplitude and frequency; also recorded: deficit is rescued

Question: And the “mEPSC amplitude and frequency in WT animals” value ([1]; 10 μM bath application, P45-60, WT slices)?
Answer: trend for an increase

Question: And the “reduced amplitude and frequency of mEPSC” value ([1]; acute bath application, MPSIIIC mouse hippocampal slices (Example 1, FIG. 1))?
Answer: significant restoration

Question: And the “effect of N-terminal acetylation on activity and stability of the peptide” value [2]?
Answer: increase the activity and stability of the peptide

Question: What about the “evoked AMPA current deficits” value [3, 5] of the same substance?
Answer: partially recovered deficits in AMPA currents; also recorded: not in AVP6-treated brain slices

Question: And the “evoked NMDA current deficits” value [3, 5]?
Answer: not in AVP6-treated brain slices

Question: What about the “paired pulse (PPF/PPR) deficits at lower inter-pulse intervals” value ([3]; 10 μM, IPI 100-200 ms Hgsnat^Geo, 100-300 ms Hgsnat^P311L) of the same substance?
Answer: significantly recovered PPF deficits; also recorded: partially rescued deficits in the paired pulse stimulation; also recorded: is restored by treatment with AVP6

Question: What about the “paired pulse (PPF) deficits at higher inter-pulse intervals” value ([3]; 10 μM, IPI 400 and 500 ms) of the same substance?
Answer: not at higher (400 and 500 ms) IPI

Question: And the “recording lost (suggesting neurotoxicity)” value ([3]; 50 μM)?
Answer: 5 of 11

Question: And the “PPF deficits at 100, 200, 300 and 400 ms IPI” value ([3]; 50 μM, Hgsnat^P304L slices)?
Answer: PPF deficits were rescued

Question: And the “spleen weight / splenomegaly” value [4]?
Answer: significantly lower spleen weight
